Data taken from patent US11078216B2, “Bisaryl amides as NRF2 activators” (GLAXOSMITHKLINE INTELLECTUAL PROPERTY DEVELOPMENT LIMITED, priority 2016, dated 2021).
Structures can show the parent of a compound that is named as a salt.

Test system: NRF2 (NQO1 activity as marker for NRF2 activation), BEAS-2B cells
Experiment: BEAS-2B NQO1 MTT Assay
Format: cell-based
Details: Homo sapiens, EC50 of NQO1 specific activity induction, 48 hours incubation, read-out: EC50
From the text: NAD(P)H:quinone oxidoreductase 1 (NQO1), also called DT diaphorase, is a homodimeric FAD-containing enzyme that catalyzes obligatory NAD(P)H-dependent two-electron reductions of quinones and protects cells against the toxic and neoplastic effects of free radicals and reactive oxygen species arising from one-electron reductions. The transcription of NQO1 is finely regulated by NRF2, and thus NQO1 activity is a good marker for NRF2 activation. On day one, frozen BEAS-2B cells (ATCC) are thawed in a water bath, counted, and re-suspended at a concentration of 250,000 cells/mL. Fifty microliters of cells are plated in 384 well black clear-bottomed plates. Plates are incubated at 37° C., 5% CO2 overnight. On day two, plates are centrifuged and 50 nL of compound or controls are added to the cells. Plates are then incubated at 37° C., 5% CO2 for 48 hours. On day four, medium is aspirated from the plate and crude cell lysates are made by adding 13 uL of 1× Cell Signaling Technologies lysis buffer with 1 Complete, Mini, EDTA-free Protease Inhibitor Tablet (Roche) for each 10 mL of lysis buffer. After lysis plates are incubated for 20 minutes at room temperature. Two microliters of lysate are removed for use in Cell Titer Glo assay (Promega) and MTT cocktail is prepared (Prochaska et. al. 1998) for measurement of NQO1 activity. Fifty microliters of MTT cocktail is added to each well, plate is centrifuged, and analyzed on an Envision plate reader (Perkin Elmer) using Absorbance 570 nm label for 30 minutes. Product formation is measured kinetically and the EC50 of NQO1 specific activity induction is calculated by plotting the change in absorbance (Delta OD/min) versus the log of compound concentration followed by 3-parameter fitting.
EC50s<1 nM (+++++), EC50s 1 nM-10 nM (++++), EC50s 10 nM-100 nM (+++), EC50s 100 nM-1 uM (++), EC50s 1-10 uM (+), EC50s>10 uM (−), or were not determined (ND).

First: CC[C@@H]1CN(Cc2cc([C@H](CC(=O)NC3CC3)c3ccc4c(nnn4CC)c3C)ccc2C)S(=O)(=O)c2cccnc2O1 [Example 31, (S)—N-Cyclopropyl-3-(3-(((R)-4-ethyl-1,1-dioxido-3,4-dihydro-2H-pyrido[2,3-b][1,4,5]oxathiazepin-2-yl)methyl)-4-methylphenyl)-3-(1-ethyl-4-methyl-1H-benzo[d][1,2,3]triazol-5-yl)propanamide]
Second: CC[C@@H]1CN(Cc2cc([C@H](CC(=O)NCCO)c3ccc4c(nnn4CC)c3C)ccc2C)S(=O)(=O)c2cccnc2O1 [Example 32, (S)-3-(3-(((R)-4-Ethyl-1,1-dioxido-3,4-dihydro-2H-pyrido[2,3-b][1,4,5]oxathiazepin-2-yl)methyl)-4-methylphenyl)-3-(1-ethyl-4-methyl-1H-benzo[d][1,2,3]triazol-5-yl)-N-(2-hydroxyethyl)propanamide]
The EC50 of the first is lower: 100 to 1000 nM for the first, 1000 to 10000 nM for the second.

CC[C@@H]1CN(Cc2cc([C@H](CC(=O)NCCCO)c3ccc4c(nnn4CC)c3C)ccc2C)S(=O)(=O)c2cccnc2O1 [Example 33, (S)-3-(3-(((R)-4-Ethyl-1,1-dioxido-3,4-dihydro-2H-pyrido[2,3-b][1,4,5]oxathiazepin-2-yl)methyl)-4-methylphenyl)-3-(1-ethyl-4-methyl-1H-benzo[d][1,2,3]triazol-5-yl)-N-(3-hydroxypropyl)-propanamide] and CC[C@@H]1CN(Cc2cc([C@H](CC(=O)NCCCOC)c3ccc4c(nnn4CC)c3C)ccc2C)S(=O)(=O)c2cccnc2O1 [Example 34, (S)-3-(3-(((R)-4-Ethyl-1,1-dioxido-3,4-dihydro-2H-pyrido[2,3-b][1,4,5]oxathiazepin-2-yl)methyl)-4-methylphenyl)-3-(1-ethyl-4-methyl-1H-benzo[d][1,2,3]triazol-5-yl)-N-(3-methoxypropyl)-propanamide] fall in the same range of EC50: 1000 to 10000 nM for the first, 1000 to 10000 nM for the second.

CC[C@@H]1CN(Cc2cc([C@H](CC(=O)NCC(N)=O)c3ccc4c(nnn4CC)c3C)ccc2C)S(=O)(=O)c2cccnc2O1 [Example 35, (S)—N-(2-Amino-2-oxoethyl)-3-(3-(((R)-4-ethyl-1,1-dioxido-3,4-dihydro-2H-pyrido[2,3-b][1,4,5]oxathiazepin-2-yl)methyl)-4-methylphenyl)-3-(1-ethyl-4-methyl-1H-benzo[d][1,2,3]triazol-5-yl)propanamide] and CC[C@@H]1CN(Cc2cc([C@H](CC(=O)NCC(=O)NC)c3ccc4c(nnn4CC)c3C)ccc2C)S(=O)(=O)c2cccnc2O1 [Example 39, (S)-3-(3-(((R)-4-Ethyl-1,1-dioxido-3,4-dihydro-2H-pyrido[2,3-b][1,4,5]oxathiazepin-2-yl)methyl)-4-methylphenyl)-3-(1-ethyl-4-methyl-1H-benzo[d][1,2,3]triazol-5-yl)-N-(2-(methylamino)-2-oxoethyl)propanamide] fall in the same range of EC50: 1000 to 10000 nM for the first, 1000 to 10000 nM for the second.

CC[C@@H]1CN(Cc2cc([C@H](CC(=O)NCCNC)c3ccc4c(nnn4CC)c3C)ccc2C)S(=O)(=O)c2cccnc2O1 [Example 36, (S)-3-(3-(((R)-4-Ethyl-1,1-dioxido-3,4-dihydro-2H-pyrido[2,3-b][1,4,5]oxathiazepin-2-yl)methyl)-4-methylphenyl)-3-(1-ethyl-4-methyl-1H-benzo[d]-[1,2,3]triazol-5-yl)-N-(2-(methylamino)ethyl)propanamide] and CC[C@@H]1CN(Cc2cc([C@H](CC(=O)NCCNC(C)=O)c3ccc4c(nnn4CC)c3C)ccc2C)S(=O)(=O)c2cccnc2O1 [Example 45, (S)—N-(2-Acetamidoethyl)-3-(3-(((R)-4-ethyl-1,1-dioxido-3,4-dihydro-2H-pyrido[2,3-b][1,4,5]oxathiazepin-2-yl)methyl)-4-methylphenyl)-3-(1-ethyl-4-methyl-1H-benzo[d][1,2,3]triazol-5-yl)propanamide] fall in the same range of EC50: 100 to 1000 nM for the first, 100 to 1000 nM for the second.

CC[C@@H]1CN(Cc2cc([C@H](CC(=O)NCC3CCCO3)c3ccc4c(nnn4CC)c3C)ccc2C)S(=O)(=O)c2cccnc2O1 (stereo partly drawn) [Example 37, (3S)-3-(3-(((R)-4-Ethyl-1,1-dioxido-3,4-dihydro-2H-pyrido[2,3-b][1,4,5]oxathiazepin-2-yl)methyl)-4-methylphenyl)-3-(1-ethyl-4-methyl-1H-benzo[d][1,2,3]triazol-5-yl)-N-((tetrahydrofuran-2-yl)methyl)propanamide] and CC[C@@H]1CN(Cc2cc([C@H](CC(=O)NCCF)c3ccc4c(nnn4CC)c3C)ccc2C)S(=O)(=O)c2cccnc2O1 [Example 38, (S)-3-(3-(((R)-4-Ethyl-1,1-dioxido-3,4-dihydro-2H-pyrido[2,3-b][1,4,5]oxathiazepin-2-yl)methyl)-4-methylphenyl)-3-(1-ethyl-4-methyl-1H-benzo[d][1,2,3]triazol-5-yl)-N-(2-fluoroethyl)propanamide] fall in the same range of EC50: 100 to 1000 nM for the first, 100 to 1000 nM for the second.

CCOCCNC(=O)C[C@@H](c1ccc(C)c(CN2C[C@@H](CC)Oc3ncccc3S2(=O)=O)c1)c1ccc2c(nnn2CC)c1C [Example 40, (S)-N-(2-Ethoxyethyl)-3-(3-(((R)-4-ethyl-1,1-dioxido-3,4-dihydro-2H-pyrido[2,3-b][1,4,5]oxathiazepin-2-yl)methyl)-4-methylphenyl)-3-(1-ethyl-4-methyl-1H-benzo[d][1,2,3]triazol-5-yl)propanamide] and CC[C@@H]1CN(Cc2cc([C@H](CC(=O)NCCOC)c3ccc4c(nnn4CC)c3C)ccc2C)S(=O)(=O)c2cccnc2O1 [Example 41, (S)-3-(3-(((R)-4-Ethyl-1,1-dioxido-3,4-dihydro-2H-pyrido[2,3-b][1,4,5]oxathiazepin-2-yl)methyl)-4-methylphenyl)-3-(1-ethyl-4-methyl-1H-benzo[d][1,2,3]triazol-5-yl)-N-(2-methoxyethyl)propanamide] fall in the same range of EC50: 100 to 1000 nM for the first, 100 to 1000 nM for the second.

First: CC[C@@H]1CN(Cc2cc([C@H](CC(=O)NCC(=O)NC(C)C)c3ccc4c(nnn4CC)c3C)ccc2C)S(=O)(=O)c2cccnc2O1 [Example 42, (S)-3-(3-(((R)-4-Ethyl-1,1-dioxido-3,4-dihydro-2H-pyrido[2,3-b][1,4,5]oxathiazepin-2-yl)methyl)-4-methylphenyl)-3-(1-ethyl-4-methyl-1H-benzo[d][1,2,3]triazol-5-yl)-N-(2-(isopropylamino)-2-oxoethyl)propanamide]
Second: CC[C@@H]1CN(Cc2cc([C@H](CC(=O)NC(C)C(N)=O)c3ccc4c(nnn4CC)c3C)ccc2C)S(=O)(=O)c2cccnc2O1 (stereo partly drawn) [Example 43, (3S)—N-(1-Amino-1-oxopropan-2-yl)-3-(3-(((R)-4-ethyl-1,1-dioxido-3,4-dihydro-2H-pyrido[2,3-b][1,4,5]oxathiazepin-2-yl)methyl)-4-methylphenyl)-3-(1-ethyl-4-methyl-1H-benzo[d][1,2,3]triazol-5-yl)propanamide]
The EC50 of the first is higher: 1000 to 10000 nM for the first, 100 to 1000 nM for the second. The second is the more potent here.

Compared with CC[C@@H]1CN(Cc2cc([C@H](CC(=O)NCCCC#N)c3ccc4c(nnn4CC)c3C)ccc2C)S(=O)(=O)c2cccnc2O1 [Example 44, (S)-N-(3-Cyanopropyl)-3-(3-(((R)-4-ethyl-1,1-dioxido-3,4-dihydro-2H-pyrido[2,3-b][1,4,5]oxathiazepin-2-yl)methyl)-4-methylphenyl)-3-(1-ethyl-4-methyl-1H-benzo[d][1,2,3]triazol-5-yl)propanamide], CC[C@@H]1CN(Cc2cc([C@@H](CC(=O)Nc3cccnc3)c3ccc4c(nnn4C)c3C)ccc2C)Cc2ncccc2O1 [Example 46, (R)-3-(1,4-Dimethyl-1H-benzo[d][1,2,3]triazol-5-yl)-3-(3-(((R)-2-ethyl-2,3-dihydropyrido[2,3-f][1,4]oxazepin-4(5H)-yl)methyl)-4-methylphenyl)-N-(pyridin-3-yl)propanamide, Formic Acid Salt] is higher in EC50: 100 to 1000 nM for the first, 1000 to 10000 nM for the second. The first is the more potent here.

CC[C@@H]1CN(Cc2cc([C@H](CC(=O)Nc3cccnc3)c3ccc4c(nnn4C)c3C)ccc2C)Cc2ncccc2O1 [Example 47, (S)-3-(1,4-Dimethyl-1H-benzo[d][1,2,3]triazol-5-yl)-3-(3-(((R)-2-ethyl-2,3-dihydropyrido[2,3-f][1,4]oxazepin-4(5H)-yl)methyl)-4-methylphenyl)-N-(pyridin-3-yl)propanamide, Formic Acid Salt] and CCn1cc(CO[C@H](c2ccc(C)c(CN3C[C@@H](C)Cc4ccncc4S3(=O)=O)c2)C(C)(C)C(=O)Nc2cccnc2)nn1 [Example 48, (R)-3-((1-Ethyl-1H-1,2,3-triazol-4-yl)methoxy)-2,2-dimethyl-3-(4-methyl-3-(((S)-4-methyl-1,1-dioxido-4,5-dihydropyrido[4,3-f][1,2]thiazepin-2(3H)-yl)methyl)phenyl)-N-(pyridin-3-yl)propanamide, Formic Acid Salt] fall in the same range of EC50: 100 to 1000 nM for the first, 100 to 1000 nM for the second.

Same assay, conditions: Homo sapiens, in some determinations, read-out: EC50 values in some determinations

CC[C@@H]1CN(Cc2cc([C@H](CC(=O)NCCNC(C)=O)c3ccc4c(nnn4CC)c3C)ccc2C)S(=O)(=O)c2cccnc2O1 [Example 45, (S)—N-(2-Acetamidoethyl)-3-(3-(((R)-4-ethyl-1,1-dioxido-3,4-dihydro-2H-pyrido[2,3-b][1,4,5]oxathiazepin-2-yl)methyl)-4-methylphenyl)-3-(1-ethyl-4-methyl-1H-benzo[d][1,2,3]triazol-5-yl)propanamide] was tested, and the EC50 was < 0.17 nM.
